This is an account of results in US9586961B2, “Homopiperazine derivatives as protein tyrosine kinase inhibitors and pharmaceutical use thereof” (LEO PHARMA A/S, priority 2010, dated 2017).

Each structure is given as a SMILES string.

Holding throughout (format): biochemical
One test addresses T1, JAK3 (Homo sapiens, UniProt P52333).
T1 construct: All four purified enzymes contain only the catalytic domain; His (N); purchased Carna Biosciences, Inc; host or cells: baculovirus expression system
Put plainly: JAK3 kinase assay (HTRF, inhibition of phosphorylation of a synthetic peptide). The following applies: catalytic domain, His-tag; 2 μM ATP (Km); read-out: JAK3 kinase inhibitory activity (EC50). The method, boiled down:
(§1)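 Baculovirus-expressed human catalytic domains (GST-JAK1, GST-TYK2, His-JAK2, His-JAK3) phosphorylated 1 μM TK substrate-biotin at ATP Km (JAK1 7 μM, JAK2 4 μM, JAK3 2 μM, TYK2 13 μM) in pH 7.0 Hepes for 20-30 min at RT, 0.75% DMSO. EDTA stop, then overnight streptavidin-XL665/cryptate-antibody detection and HTRF read.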
On the technique in general: In TR-FRET formats the signal depends on donor and acceptor labels being close together.

In another test the target is T2, JAK2 (Homo sapiens, UniProt O60674).
T2 construct: All four purified enzymes contain only the catalytic domain; His (N); purchased Carna Biosciences, Inc; host or cells: baculovirus expression system
T2 sequence (O60674 849-1124 limits assumed): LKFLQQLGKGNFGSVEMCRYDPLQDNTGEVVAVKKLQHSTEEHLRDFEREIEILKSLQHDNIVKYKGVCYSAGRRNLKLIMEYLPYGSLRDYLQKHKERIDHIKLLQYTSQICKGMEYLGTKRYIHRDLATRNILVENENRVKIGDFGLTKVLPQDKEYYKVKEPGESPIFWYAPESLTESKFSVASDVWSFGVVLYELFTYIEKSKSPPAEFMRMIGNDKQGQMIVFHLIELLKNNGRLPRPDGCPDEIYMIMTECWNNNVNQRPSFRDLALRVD
Kind of test: JAK2 kinase assay (HTRF, inhibition of phosphorylation of a synthetic peptide). The note with it: catalytic domain, His-tag; 4 μM ATP (Km); read-out: JAK2 kinase inhibitory activity (EC50). The method, boiled down: as §1

Another test concerns the target T3, JAK1 (Homo sapiens, UniProt P23458).
T3 construct: JAK1 (aa 850-1154) and TYK2 (aa 871-1187) are expressed with an N-terminally fused GST-tag; GST (N); purchased Carna Biosciences, Inc; host or cells: baculovirus expression system
Put plainly: JAK1 kinase assay (HTRF, inhibition of phosphorylation of a synthetic peptide). The note with it: catalytic domain aa 850-1154, GST-tag; 7 μM ATP (Km); read-out: JAK1 kinase inhibitory activity (EC50). The gist of the method: as §1

The target in the next test is T4, TYK2 (Homo sapiens, UniProt P29597).
T4 construct: JAK1 (aa 850-1154) and TYK2 (aa 871-1187) are expressed with an N-terminally fused GST-tag; GST (N); purchased Carna Biosciences, Inc; host or cells: baculovirus expression system
T4 sequence (P29597 871-1187): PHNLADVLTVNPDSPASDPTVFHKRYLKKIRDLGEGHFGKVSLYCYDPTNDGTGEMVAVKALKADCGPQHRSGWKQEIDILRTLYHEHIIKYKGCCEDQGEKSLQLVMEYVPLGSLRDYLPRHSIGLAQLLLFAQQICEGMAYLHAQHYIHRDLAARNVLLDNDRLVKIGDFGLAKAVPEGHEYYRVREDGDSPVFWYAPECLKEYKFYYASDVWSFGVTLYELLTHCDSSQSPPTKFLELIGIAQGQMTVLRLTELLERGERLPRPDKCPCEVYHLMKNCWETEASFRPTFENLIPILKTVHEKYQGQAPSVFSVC
Put plainly: TYK2 kinase assay (HTRF, inhibition of phosphorylation of a synthetic peptide). The note with it: catalytic domain aa 871-1187, GST-tag; 13 μM ATP (Km); read-out: TYK2 kinase inhibitory activity (EC50). The method, boiled down:
as §1

T1 sequence (P52333 822-1111 limits assumed): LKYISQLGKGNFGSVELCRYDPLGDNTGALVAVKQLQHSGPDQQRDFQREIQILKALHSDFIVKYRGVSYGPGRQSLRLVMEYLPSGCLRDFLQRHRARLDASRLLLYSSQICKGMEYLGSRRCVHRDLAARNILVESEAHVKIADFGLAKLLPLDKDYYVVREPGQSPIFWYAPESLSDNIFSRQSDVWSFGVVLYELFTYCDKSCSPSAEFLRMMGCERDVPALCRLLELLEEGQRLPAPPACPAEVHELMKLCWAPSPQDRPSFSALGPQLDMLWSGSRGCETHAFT
T3 sequence (P23458 850-1154): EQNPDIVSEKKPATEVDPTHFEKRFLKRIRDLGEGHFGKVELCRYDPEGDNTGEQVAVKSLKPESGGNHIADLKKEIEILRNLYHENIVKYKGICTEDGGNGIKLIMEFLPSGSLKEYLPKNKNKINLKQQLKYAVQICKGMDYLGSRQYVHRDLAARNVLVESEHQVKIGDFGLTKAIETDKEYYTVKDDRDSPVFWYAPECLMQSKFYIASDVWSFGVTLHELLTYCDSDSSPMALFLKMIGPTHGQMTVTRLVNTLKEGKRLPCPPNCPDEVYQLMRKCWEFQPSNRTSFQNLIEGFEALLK

In the case of `CS(=O)(=O)Nc1ccc(C(=O)N2CCN(c3ncnc4[nH]ccc34)CC3(CC3)C2)cc1` [Example 102, N-[4-[5-(7H-pyrrolo[2,3-d]pyrimidin-4-yl)-5,8-diazaspiro[2.6]nonane-8-carbonyl]phenyl]methanesulfonamide], the EC50 is 0.1 to 1 µM on JAK3, 0.1 to 1 µM on JAK2, 0.1 to 1 µM at JAK1 and over 1 µM at TYK2.

Consider `CN(CCC#N)S(=O)(=O)N1CCN(c2ncnc3[nH]ccc23)CC2(CC2)C1` [Example 103, N-(2-cyanoethyl)-N-methyl-5-(7H-pyrrolo[2,3-d]pyrimidin-4-yl)-5,8-diazaspiro[2.6]nonane-8-sulfonamide], for which the EC50 is over 1 µM at JAK3, 0.1 to 1 µM on JAK2, 0.1 to 1 µM at JAK1 and over 1 µM at TYK2.

Turning to `CCN(CC)S(=O)(=O)N1CCN(c2ncnc3[nH]ccc23)CC2(CC2)C1` [Example 104, N,N-diethyl-5-(7H-pyrrolo[2,3-d]pyrimidin-4-yl)-5,8-diazaspiro[2.6]nonane-8-sulfonamide], the EC50 was over 1 µM at JAK3, 0.1 to 1 µM on JAK2, over 1 µM at JAK1 and over 1 µM on TYK2.

On to `CN(C1CCCCC1)S(=O)(=O)N1CCN(c2ncnc3[nH]ccc23)CC2(CC2)C1` [Example 105, N-cyclohexyl-N-methyl-5-(7H-pyrrolo[2,3-d]pyrimidin-4-yl)-5,8-diazaspiro[2.6]nonane-8-sulfonamide], for which the EC50 was over 1 µM on JAK3, 0.1 to 1 µM at JAK2, 0.1 to 1 µM at JAK1 and over 1 µM at TYK2.

For the molecule `N#Cc1ccc(OCC(=O)N2CCN(c3ncnc4[nH]ccc34)CC3(CC3)C2)cc1` [Example 106, 4-[2-oxo-2-[5-(7H-pyrrolo[2,3-d]pyrimidin-4-yl)-5,8-diazaspiro[2.6]nonan-8-yl]ethoxy]benzonitrile], the EC50 on JAK3 is 0.1 to 1 µM; at JAK2 it was under 0.1 µM; at JAK1, under 0.1 µM; on TYK2, 0.1 to 1 µM.

For `c1ccc(CN2CCN(c3ncnc4[nH]ccc34)CC3(CC3)C2)cc1` [Example 107, 4-(5-benzyl-5,8-diazaspiro[2.6]nonan-8-yl)-7H-pyrrolo[2,3-d]pyrimidine], the EC50 on JAK3, at JAK2, on JAK1 and on TYK2 was over 1 µM in each case.

With `N#Cc1ccc(CCC(=O)N2CCN(c3ncnc4[nH]ccc34)CC3(CC3)C2)cc1` [Example 115, 4-[3-oxo-3-[5-(7H-pyrrolo[2,3-d]pyrimidin-4-yl)-5,8-diazaspiro[2.6]nonan-8-yl]propyl]benzonitrile], the EC50 is under 0.1 µM on JAK3, under 0.1 µM at JAK2, under 0.1 µM on JAK1 and 0.1 to 1 µM at TYK2.

Turning to `N#Cc1cccc(CCC(=O)N2CCN(c3ncnc4[nH]ccc34)CC3(CC3)C2)c1` [Example 116, 3-[3-oxo-3-[5-(7H-pyrrolo[2,3-d]pyrimidin-4-yl)-5,8-diazaspiro[2.6]nonan-8-yl]propyl]benzonitrile], the EC50 at JAK3 was 0.1 to 1 µM; on JAK2, under 0.1 µM; on JAK1, 0.1 to 1 µM; at TYK2, over 1 µM.

As to `N#Cc1csc(C(=O)N2CCCN(c3ncnc4[nH]ccc34)CC23CC3)c1` [Example 119, 5-[5-(7H-pyrrolo[2,3-d]pyrimidin-4-yl)-5,9-diazaspiro[2.6]nonane-9-carbonyl]thiophene-3-carbonitrile], the EC50 on JAK3 is 0.1 to 1 µM; on JAK2, under 0.1 µM; on JAK1, under 0.1 µM; at TYK2, 0.1 to 1 µM.

`N#Cc1ccc(C(=O)N2CCCN(c3ncnc4[nH]ccc34)CC23CC3)s1` [Example 120, 5-[5-(7H-pyrrolo[2,3-d]pyrimidin-4-yl)-5,9-diazaspiro[2.6]nonane-9-carbonyl]thiophene-2-carbonitrile]: the EC50 at JAK3 is under 0.1 µM; at JAK2 it was under 0.1 µM; on JAK1, under 0.1 µM; at TYK2, 0.1 to 1 µM.

As for `O=C(Cc1ccc(Cl)cc1)N1CCN(c2ncnc3[nH]ccc23)CC2(CC2)C1` [Example 125, 2-(4-chlorophenyl)-1-[5-(7H-pyrrolo[2,3-d]pyrimidin-4-yl)-5,8-diazaspiro[2.6]nonan-8-yl]ethanone], the EC50 on JAK3 is 0.1 to 1 µM; at JAK2 it was under 0.1 µM; at JAK1, under 0.1 µM; at TYK2, 0.1 to 1 µM.

`Cc1cc(C(=O)N2CCCN(c3ncnc4[nH]ccc34)CC23CC3)no1` [Example 141]: the EC50 was 0.1 to 1 µM at JAK3, under 0.1 µM at JAK2, under 0.1 µM at JAK1 and 0.1 to 1 µM on TYK2.

Turning to `O=C(c1csnn1)N1CCCN(c2ncnc3[nH]ccc23)CC12CC2` [Example 142, [5-(7H-pyrrolo[2,3-d]pyrimidin-4-yl)-5,9-diazaspiro[2.6]nonan-9-yl]-(thiadiazol-4-yl)methanone], the EC50 on JAK3 was 0.1 to 1 µM; on JAK2, under 0.1 µM; at JAK1, under 0.1 µM; at TYK2, 0.1 to 1 µM.

As to `O=C(c1ccon1)N1CCCN(c2ncnc3[nH]ccc23)CC12CC2` [Example 153, isoxazol-3-yl-[5-(7H-pyrrolo[2,3-d]pyrimidin-4-yl)-5,9-diazaspiro[2.6]nonan-9-yl]methanone], the EC50 at JAK3 was 0.1 to 1 µM; at JAK2 it was under 0.1 µM; on JAK1, under 0.1 µM; at TYK2, 0.1 to 1 µM.

`O=C(Cc1ccc(F)cc1)N1CCN(c2ncnc3[nH]ccc23)CC2(CC2)C1` [Example 158, 2-(4-fluorophenyl)-1-[5-(7H-pyrrolo[2,3-d]pyrimidin-4-yl)-5,8-diazaspiro[2.6]nonan-8-yl]ethanone]: the EC50 was 0.1 to 1 µM on JAK3, under 0.1 µM on JAK2, under 0.1 µM at JAK1 and 0.1 to 1 µM at TYK2.

On to `O=C(c1ccsn1)N1CCCN(c2ncnc3[nH]ccc23)CC12CC2` [Example 201, isothiazol-3-yl-[5-(7H-pyrrolo[2,3-d]pyrimidin-4-yl)-5,9-diazaspiro[2.6]nonan-9-yl]methanone], for which the EC50 on JAK3 was 0.1 to 1 µM; at JAK2, under 0.1 µM; on JAK1, under 0.1 µM; at TYK2 it was 0.1 to 1 µM.

For the molecule `O=C(c1cnsn1)N1CCCN(c2ncnc3[nH]ccc23)CC12CC2` [Example 203, [5-(7H-pyrrolo[2,3-d]pyrimidin-4-yl)-5,9-diazaspiro[2.6]nonan-9-yl]-(1,2,5-thiadiazol-3-yl)methanone], the EC50 was 0.1 to 1 µM on JAK3, under 0.1 µM on JAK2, under 0.1 µM on JAK1 and 0.1 to 1 µM on TYK2.

For the molecule `N#Cc1c[nH]c(C(=O)N2CCCN(c3ncnc4[nH]ccc34)CC23CC3)c1` [Example 209, 5-[5-(7H-pyrrolo[2,3-d]pyrimidin-4-yl)-5,9-diazaspiro[2.6]nonane-9-carbonyl]-1H-pyrrole-3-carbonitrile], the EC50 on JAK3, on JAK2, on JAK1 and on TYK2 was under 0.1 µM throughout.

As for `O=C(c1ccc[nH]1)N1CCCN(c2ncnc3[nH]ccc23)CC12CC2` [Example 255, [5-(7H-pyrrolo[2,3-d]pyrimidin-4-yl)-5,9-diazaspiro[2.6]nonan-9-yl]-(1H-pyrrol-2-yl)methanone], the EC50 is 0.1 to 1 µM on JAK3, under 0.1 µM at JAK2, under 0.1 µM at JAK1 and 0.1 to 1 µM on TYK2.

As to `Nc1nonc1C(=O)N1CCCN(c2ncnc3[nH]ccc23)CC12CC2` [Example 256, (4-amino-1,2,5-oxadiazol-3-yl)-[5-(7H-pyrrolo[2,3-d]pyrimidin-4-yl)-5,9-diazaspiro[2.6]nonan-9-yl]methanone], the EC50 on JAK3 was under 0.1 µM; at JAK2, under 0.1 µM; on JAK1, under 0.1 µM; on TYK2 it was 0.1 to 1 µM.

In the case of `N#Cc1ccc(C(=O)N2CCCN(c3ncnc4[nH]ccc34)CC23CC3)o1` [Example 258, 5-[5-(7H-pyrrolo[2,3-d]pyrimidin-4-yl)-5,9-diazaspiro[2.6]nonane-9-carbonyl]furan-2-carbonitrile], the EC50 on JAK3 is 0.1 to 1 µM; on JAK2, under 0.1 µM; on JAK1, under 0.1 µM; on TYK2, 0.1 to 1 µM.

For `Cc1ccc(CC(=O)N2CCN(c3ncnc4[nH]ccc34)CC3(CC3)C2)cc1` [Example 263], the EC50 is 0.1 to 1 µM at JAK3, under 0.1 µM at JAK2, under 0.1 µM at JAK1 and 0.1 to 1 µM on TYK2.

The EC50 is the midpoint of the concentration-response curve.
